# Results as given in US20150297593A1 (priority 2012, published 2015).
# Key:
# [1] = system: influenza A virus (Mem71, H3N1); set-up: species or system BALB/c mice; conditions: mouse, in vivo
# [2] = system: influenza A virus (Mem71, H3N1); assay type: in vivo, Rag2−/− mice
# [3] = system: nuocytes (CD45+Lin−ST2+cKit+Sca1+); assay type: in vivo, BALB/c mice
# [4] = system: mouse lung nuocytes (Lin−ST2+); assay type: cell-based; conditions: IL-2 50 ng/ml plus rIL-33 100 ng/ml, imatinib 0.1-1 μM
# [5] = system: human nuocytes isolated from the BAL fluid of patients with asthma; assay type: cell-based; conditions: imatinib 1 μM; rIL-2 50 ng/ml plus rIL-33 100 ng/ml for 24 hrs
# [6] = system: RSV; assay: RSV-induced AHR model; assay type: in vivo, BALB/c mice; conditions: 100 mg/kg i.p. on day 1 post infection
# [7] = system: recombinant IL-33 (rIL-33)-induced AHR; conditions: mouse, in vivo
# [8] = system: influenza A virus (Mem71, H3N1); conditions: 100 mg/kg i.p. on day 1; sera on day 11
# [9] = system: nuocytes (CD45+Lin−ST2+ckit+Sca1+); assay: FACS count of BAL and lung nuocytes after rIL-33 in Rag2−/− mice; conditions: imatinib 100 mg/kg i.p. on day 1, day 5
# Procedure: In FIGS. 5C and 5D, BAL cells (FIG. 5C) or lung cells (FIG. 5D) were taken from 8 wk old Rag2^−/− mice (n=5 per group) on day 5, and further stimulated with PMA+ionomycin for 5 hr. The percentage of lung CD45^+Lin^−ST2^+ckit^+Sca1^+ cells was assessed by FACS. Third panels show dot plots for Lin^−ST2^+ cells in lung leukocytes (CD45^+). After gating on the Lin^−ST2^+cKit^+ cells, the cells were analyzed for c-Kit and Sca1 expression (fourth panels).
# Whole lungs were flushed with PBS injected into the right ventricle, removed, and rinsed in PBS. […] The digest was passed multiple times through an 18-gauge needle and allowed to incubate for another 30 min before filtered. RBCs were removed by 4-min incubation in lysis buffer (Sigma-Aldrich, St. Louis, Mo.) at room temperature. Single-cell suspensions of spleen lymphocytes were obtained by mechanical disruption and RBC lysis.
# Cells were preincubated with anti-Fcy blocking mAb (2.4G2) and washed before staining. Cells were stained with anti-mouse PE-Texas red-conjugated CD45, FITC-conjugated CD3, CD19, CD11b, CD11c, CD49b, F4/80, Fc□R1; APC conjugated cKit,; PerCP conjugated cKit, Alexa Fluor 700-conjugated Sca1; PE conjugated biotinylated anti-ST2 antibodies. […] Cells were analyzed on a BDCanto flow cytometer (BD Biosciences, Franklin Lakes, N.J.) using FlowJo 8.3.3 software (Tree Star, Inc., Ashland, Oreg.).
# [10] = 100 mg/kg on day 1, day 5 post-infection
# [11] = after imatinib treatment, data not shown
compound,measurement,setting,value
Cc1ccc(NC(=O)c2ccc(CN3CCN(C)CC3)cc2)cc1Nc1nccc(-c2cccnc2)n1 [imatinib],inflammation (BAL fluid cells),[1],abolished
same,lung inflammation (BAL fluid cells),[1],abolished
same,H3N1 infection-induced inflammation in Rag2−/− mice,"[2]; 100 mg/kg i.p. on day 1, […]",inhibits
same,influenza-induced AHR in Rag2−/− mice,"[2]; mouse, in vivo",blocked
same,total number of NKT cells in the lung,"[3]; 100 mg/kg on day 1, day 5",had no effect
same,total number of conventional T cells in the lung,"[3]; 100 mg/kg on day 1, day 5",had no effect
same,frequency and absolute number of nuocytes in BAL fluid,[3]; [10],reduced
same,frequency and absolute number of nuocytes in the lungs,[3]; [10],reduced
same,frequency of NKT cells in BAL fluid,[3]; [11],slightly reduced
same,total number of BAL fluid cells,[3]; [11],slightly reduced
same,secretion of IL-5 by nuocytes (ELISA),[4],reduced
same,secretion of IL-13 by nuocytes (ELISA),[4],reduced
same,proliferation of mouse lung nuocytes (3H-thymidine incorporation),[4]; dose-dependent,blocked
same,production of IL-13 by human nuocytes,[5],blocked
same,development of RSV-induced inflammation,[6],blocked
same,development of RSV-induced AHR,[6]; assessed 6 days post-infection,blocked
same,AHR induced with recombinant IL-33,[7],could block
same,anti-influenza IgG production,[8],no significant reduction
same,number of BAL and lung nuocytes (airway nuocytophilia induced with rIL-33),[9],reduced
Cc1ccc(NC(=O)c2ccc(CN3CCN(C)CC3)cc2)cc1Nc1nc(-c2cccnc2)cs1 [masitinib],H3N1-induced AHR,[1],abolished
same,H3N1-induced inflammation,[1],abolished
